Holding throughout (assay type): functional
The test system of experiment [1] is Staphylococcus aureus. Description: Concentration required to inhibit 45 stain Staphylococcus aureus 45 by standard agar dilution method.
Experiment [2] concerns Streptococcus pyogenes. In words: Concentration required to inhibit Streptococcus pyogenes EES61 stain by standard agar dilution method. Background: Agar dilution tests growth on a series of plates holding different concentrations.
Experiment [3] concerns Klebsiella pneumoniae. In words: Concentration required to inhibit Klebsiella pneumoniae ATCC 8045 stain by standard agar dilution method.
Experiment [4] concerns Staphylococcus aureus. In words: Concentration required to inhibit CMX553 Staphylococcus aureus CMX553 stain by standard agar dilution method.
The subject of experiment [5] is Escherichia coli. Description: Concentration required to inhibit Escherichia coli SS stain by standard agar dilution method.
In experiment [6] the test system is Acinetobacter calcoaceticus. In words: Concentration required to inhibit Acinetobacter calcoaceticus CMX669 stain by standard agar dilution method.
For experiment [7], the system named is Escherichia coli. Description: Concentration required to inhibit Escherichia coli JUHL stain by standard agar dilution method.
In experiment [8] the test system is Streptococcus pyogenes. Description: Concentration required to inhibit Streptococcus pyogenes 930CONST stain by standard agar dilution method.
In experiment [9] the test system is Pseudomonas aeruginosa. In words: Concentration required to inhibit Pseudomonas aeruginosa K799/61 stain by standard agar dilution method.
The subject of experiment [10] is Micrococcus luteus. Description: Concentration required to inhibit Micrococcus luteus ATCC 9341 stain by standard agar dilution method.
In experiment [11] the test system is Pseudomonas aeruginosa. In words: Concentration required to inhibit Pseudomonas aeruginosa K799/WT stain by standard agar dilution method.
In experiment [12] the test system is Escherichia coli. Description: Concentration required to inhibit Escherichia coli KNK 437 stain by standard agar dilution method.
Experiment [13] has as its system Streptococcus equinus. Description: Concentration required to inhibit Streptococcus bovis A5169 stain by standard agar dilution method.
For experiment [14], the system named is Escherichia coli. In words: Concentration required to inhibit Escherichia coli DC-2 stain by standard agar dilution method.
The test system of experiment [15] is Staphylococcus epidermidis. In words: Concentration required to inhibit Staphylococcus epidermis 3519 stain by standard agar dilution method.
The subject of experiment [16] is Staphylococcus aureus. Description: Concentration required to inhibit Staphylococcus aureus ATCC 6538P stain by standard agar dilution method.
For experiment [17], the system named is Streptococcus pyogenes. In words: Concentration required to inhibit Streptococcus pyogenes 2548 INDUC stain by standard agar dilution method.
Experiment [18] has as its system Klebsiella aerogenes. Description: Concentration required to inhibit Enterobacter aerogenes ATCC 13048 stain by standard agar dilution method.
For experiment [19], the system named is Enterococcus faecium. In words: Concentration required to inhibit Enterococcus faecium ATCC 8043 stain by standard agar dilution method.
The test system of experiment [20] is Escherichia coli. Description: Concentration required to inhibit Escherichia coli H 560 stain by standard agar dilution method.
Experiment [21] relates to Micrococcus luteus. In words: Concentration required to inhibit Micrococcus luteus ATCC 4698 stain by standard agar dilution method.
The test system of experiment [22] is Streptococcus agalactiae. Description: Concentration required to inhibit Streptococcus agalactiae CMX508 stain by standard agar dilution method.
The subject of experiment [23] is Burkholderia cepacia. Description: Concentration required to inhibit Pseudomonas cepacia 2961 stain by standard agar dilution method.

In brackets after ≈: the same amount, converted by molar mass.

By MIC is commonly meant the smallest concentration in the dilution series that meets the test's criterion for growth inhibition.

For `CC[C@H]1OC(=O)[C@H](C)[C@@H](O[C@H]2C[C@@](C)(OC)[C@@H](O)[C@H](C)O2)[C@H](C)[C@@H](O[C@@H]2O[C@H](C)C[C@H](N(C)C)[C@H]2O)[C@@](C)(O)C[C@@H](C)[C@@H](N(C)C)[C@H](C)[C@@H](O)[C@H]1CO`, the MIC was 6.2 µg/mL (≈ 8.13 µM) in experiment [1]; 0.39 µg/mL (≈ 0.511 µM) in [2]; 50 µg/mL (≈ 65.5 µM) in experiment [3]; 6.2 µg/mL (≈ 8.13 µM) in experiment [4]; 0.39 µg/mL (≈ 0.511 µM) in experiment [5]; 3.1 µg/mL (≈ 4.06 µM) in experiment [6]. In addition, the MIC in [7] is > 100 µg/mL; in experiment [8], > 100 µg/mL; in experiment [9], 1.56 µg/mL (≈ 2.04 µM); in experiment [10], 0.78 µg/mL (≈ 1.02 µM); in experiment [11] it was 50 µg/mL (≈ 65.5 µM); in [12] it was 100 µg/mL (≈ 131 µM). Moreover, the MIC in [13] was determined as 0.78 µg/mL (≈ 1.02 µM); in [14], 50 µg/mL (≈ 65.5 µM); in [15] it was 6.2 µg/mL (≈ 8.13 µM); in [16], 6.2 µg/mL (≈ 8.13 µM); in experiment [17], 50 µg/mL (≈ 65.5 µM); in experiment [18], 100 µg/mL (≈ 131 µM). The MIC in [19] was determined as 1.56 µg/mL (≈ 2.04 µM); in experiment [20] it was 25 µg/mL (≈ 32.8 µM); in experiment [21], 0.78 µg/mL (≈ 1.02 µM); in [22], 0.78 µg/mL (≈ 1.02 µM); in experiment [23] it was 100 µg/mL (≈ 131 µM).

Take `CC[C@H]1OC(=O)[C@H](C)[C@@H](O[C@H]2C[C@@](C)(OC)[C@@H](O)[C@H](C)O2)[C@H](C)[C@@H](O[C@@H]2O[C@H](C)C[C@H](N(C)C)[C@H]2O)[C@@](C)(O)C[C@@H](C)[C@@H](N(C)C)[C@H](C)[C@@H](O)[C@@]1(O)CO`: the MIC is 25 µg/mL (≈ 32.1 µM) in [1]; 1.56 µg/mL (≈ 2 µM) in experiment [2]; > 100 µg/mL in experiment [3]; 25 µg/mL (≈ 32.1 µM) in experiment [4]; 1.56 µg/mL (≈ 2 µM) in experiment [5]; > 100 µg/mL in experiment [6]. In addition, the MIC in experiment [7] was > 100 µg/mL; in [8], > 100 µg/mL; in experiment [9], 50 µg/mL (≈ 64.2 µM); in experiment [10], 6.2 µg/mL (≈ 7.96 µM); in experiment [11] it was > 100 µg/mL; in experiment [12], > 100 µg/mL. In addition, the MIC in [13] is 3.1 µg/mL (≈ 3.98 µM); in experiment [14], 50 µg/mL (≈ 64.2 µM); in [15], 25 µg/mL (≈ 32.1 µM); in experiment [16], 25 µg/mL (≈ 32.1 µM); in experiment [17], 100 µg/mL (≈ 128 µM); in experiment [18], > 100 µg/mL. In addition, the MIC in experiment [19] was 12.5 µg/mL (≈ 16 µM); in [20], 25 µg/mL (≈ 32.1 µM); in experiment [21], 3.1 µg/mL (≈ 3.98 µM); in [22], 3.1 µg/mL (≈ 3.98 µM); in experiment [23] it was > 100 µg/mL.

On to `CC[C@H]1OC(=O)[C@H](C)[C@@H](O[C@H]2C[C@@](C)(OC)[C@@H](O)[C@H](C)O2)[C@H](C)[C@@H](O[C@@H]2O[C@H](C)C[C@H](N(C)C)[C@H]2O)[C@@](C)(O)C[C@@H](C)[C@@H](N(C)C)[C@H](C)[C@@H](O)[C@]1(C)O`, for which the MIC was 0.78 µg/mL (≈ 1.02 µM) in experiment [1]; 0.05 µg/mL (≈ 0.0655 µM) in experiment [2]; 25 µg/mL (≈ 32.8 µM) in experiment [3]; 0.78 µg/mL (≈ 1.02 µM) in experiment [4]; 0.1 µg/mL (≈ 0.131 µM) in experiment [5]; 12.5 µg/mL (≈ 16.4 µM) in [6]. The MIC in [7] was 50 µg/mL (≈ 65.5 µM); in experiment [8] it was > 100 µg/mL; in [9], 12.5 µg/mL (≈ 16.4 µM); in [10] it was 0.1 µg/mL (≈ 0.131 µM); in experiment [11], > 100 µg/mL; in [12] it was 50 µg/mL (≈ 65.5 µM). The MIC in experiment [13] turned out to be 0.1 µg/mL (≈ 0.131 µM); in experiment [14], 25 µg/mL (≈ 32.8 µM); in experiment [15], 0.39 µg/mL (≈ 0.511 µM); in experiment [16], 0.39 µg/mL (≈ 0.511 µM); in [17], 100 µg/mL (≈ 131 µM); in experiment [18], 50 µg/mL (≈ 65.5 µM). The MIC in [19] is 0.2 µg/mL (≈ 0.262 µM); in experiment [20], 12.5 µg/mL (≈ 16.4 µM); in experiment [21], 0.1 µg/mL (≈ 0.131 µM); in experiment [22], 0.1 µg/mL (≈ 0.131 µM); in experiment [23], > 100 µg/mL.

For the molecule `CC[C@H]1OC(=O)[C@H](C)[C@@H](O[C@H]2C[C@@](C)(OC)[C@@H](O)[C@H](C)O2)[C@H](C)[C@@H](O[C@H]2O[C@H](C)C[C@H](N(C)C)[C@H]2O)[C@@](C)(O)C[C@@H](C)[C@@H](N(C)C)[C@H](C)[C@@H](O)[C@@]12CO2`, the MIC was 0.78 µg/mL (≈ 1.02 µM) in experiment [1]; 0.05 µg/mL (≈ 0.0657 µM) in experiment [2]; 100 µg/mL (≈ 131 µM) in [3]; 0.78 µg/mL (≈ 1.02 µM) in [4]; 0.39 µg/mL (≈ 0.512 µM) in experiment [5]; 12.5 µg/mL (≈ 16.4 µM) in [6]. For the same molecule, the MIC is 100 µg/mL (≈ 131 µM) in [7]; > 100 µg/mL in [8]; 12.5 µg/mL (≈ 16.4 µM) in experiment [9]; 0.1 µg/mL (≈ 0.131 µM) in experiment [10]; > 100 µg/mL in [11]; 100 µg/mL (≈ 131 µM) in experiment [12]. Also, the MIC in experiment [13] is 0.02 µg/mL (≈ 0.0263 µM); in experiment [14], 50 µg/mL (≈ 65.7 µM); in [15], 0.39 µg/mL (≈ 0.512 µM); in experiment [16] it was 0.78 µg/mL (≈ 1.02 µM); in experiment [17], 6.2 µg/mL (≈ 8.15 µM); in experiment [18], > 100 µg/mL. In addition, the MIC in experiment [19] was 0.02 µg/mL (≈ 0.0263 µM); in [20] it was 25 µg/mL (≈ 32.9 µM); in experiment [21] it was 0.1 µg/mL (≈ 0.131 µM); in experiment [22] it was 0.05 µg/mL (≈ 0.0657 µM); in experiment [23] it was > 100 µg/mL.

(Values after ChEMBL document CHEMBL1125223, “Synthesis and antibacterial activities of C-21 functionalized derivatives of (9R)-9-amino-9-deoxoerythromycins A and B” (1991).)
